ChEMBL document CHEMBL1177858, “Cytotoxicity and topo I targeting activity of substituted 10--nitrogenous heterocyclic aromatic group derivatives of SN-38” (Eur J Med Chem, 2010)

Legend:
[1] = system: HCT-8; assay: Cytotoxicity against human HCT8 cells after 3 days by MTT assay; type: functional, cell-based
[2] = system: MCF7; assay: Cytotoxicity against human MCF7 cells after 3 days by MTT assay; type: functional, cell-based
[3] = biological target: T1, DNA topoisomerase 1 (Homo sapiens) (UniProt P11387); assay: Inhibition of topoisomerase 1-mediated supercoiled pBR322 relaxation assessed as change in band intensity by electrophoresis relative to camptothecin; also: test concentration or dose not given here
T1 sequence (whole entry): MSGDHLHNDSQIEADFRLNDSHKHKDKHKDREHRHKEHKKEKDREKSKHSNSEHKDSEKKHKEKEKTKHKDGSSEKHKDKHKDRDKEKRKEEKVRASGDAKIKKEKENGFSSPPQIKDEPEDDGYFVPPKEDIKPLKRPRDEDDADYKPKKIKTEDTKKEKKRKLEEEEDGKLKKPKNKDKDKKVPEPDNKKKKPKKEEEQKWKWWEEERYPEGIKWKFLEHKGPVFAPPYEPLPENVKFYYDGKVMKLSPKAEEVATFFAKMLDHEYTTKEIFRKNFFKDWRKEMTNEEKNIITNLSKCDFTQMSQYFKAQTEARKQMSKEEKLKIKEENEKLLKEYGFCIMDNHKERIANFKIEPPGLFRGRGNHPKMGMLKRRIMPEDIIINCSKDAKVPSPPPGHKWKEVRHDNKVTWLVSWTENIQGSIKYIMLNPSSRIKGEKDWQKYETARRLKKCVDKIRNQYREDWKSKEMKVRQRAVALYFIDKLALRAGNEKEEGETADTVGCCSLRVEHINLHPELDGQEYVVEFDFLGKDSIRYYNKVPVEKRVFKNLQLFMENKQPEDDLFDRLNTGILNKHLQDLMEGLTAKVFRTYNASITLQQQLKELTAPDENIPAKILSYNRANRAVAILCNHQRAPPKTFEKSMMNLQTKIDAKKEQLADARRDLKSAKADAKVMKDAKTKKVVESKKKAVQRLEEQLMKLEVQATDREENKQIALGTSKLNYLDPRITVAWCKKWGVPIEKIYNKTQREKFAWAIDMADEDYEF

[4] = system: KB; assay: Cytotoxicity against human KB cells after 3 days by MTT assay; type: functional, cell-based

SMILES | IC50 [1] | IC50 [2] | fold change (FC) [3] | IC50 [4]
CC[C@@]1(O)C(=O)OCc2c1cc1n(c2=O)Cc2cc3cc(OCCCn4cncn4)ccc3nc2-1 | 0.9 nM/ml | 0.62 nM/ml | 0.62 | –
CCc1c2c(nc3ccc(OCC[n+]4cccc(C)c4)cc13)-c1cc3c(c(=O)n1C2)COC(=O)[C@]3(O)CC.[Br-] | 0.27 nM/ml | 5.04 nM/ml | 1.07 | 0.06 nM/ml
CC[C@@]1(O)C(=O)OCc2c1cc1n(c2=O)Cc2cc3c(CN(C)C)c(O)ccc3nc2-1 [TOPOTECAN] | 0.07 nM/ml | 0.15 nM/ml | – | 0.07 nM/ml
CC[C@@]1(O)C(=O)OCc2c1cc1n(c2=O)Cc2cc3ccccc3nc2-1 [CAMPTOTHECIN] | < 0.013 nM/ml | 0.02 nM/ml | 1 | < 0.013 nM/ml
CCc1c2c(nc3ccc(OCCC[n+]4cccc(F)c4)cc13)-c1cc3c(c(=O)n1C2)COC(=O)[C@]3(O)CC.[Br-] | 0.43 nM/ml | 1.92 nM/ml | 0.92 | 1.9 nM/ml
CC[C@@]1(O)C(=O)OCc2c1cc1n(c2=O)Cc2cc3cc(OCCCn4cnc5cncnc54)ccc3nc2-1 | 1.81 nM/ml | 2.09 nM/ml | 0.61 | –
CC[C@@]1(O)C(=O)OCc2c1cc1n(c2=O)Cc2cc3cc(OCCCOc4cc(C(F)(F)F)ncn4)ccc3nc2-1 | 0.18 nM/ml | 0.18 nM/ml | 0.67 | –
CCc1c2c(nc3ccc(OCCC[n+]4ccccc4)cc13)-c1cc3c(c(=O)n1C2)COC(=O)[C@]3(O)CC.[Br-] | 0.04 nM/ml | 0.14 nM/ml | 0.96 | 0.02 nM/ml
CCc1c2c(nc3ccc(OCCC[n+]4cccc(CO)c4)cc13)-c1cc3c(c(=O)n1C2)COC(=O)[C@]3(O)CC.[Br-] | 0.13 nM/ml | 1.38 nM/ml | 0.95 | 0.52 nM/ml
CCc1c2c(nc3ccc(OCCC[n+]4cccc(C)c4)cc13)-c1cc3c(c(=O)n1C2)COC(=O)[C@]3(O)CC.[Br-] | < 0.01 nM/ml | 0.11 nM/ml | 0.97 | < 0.01 nM/ml
CCc1c2c(nc3ccc(OCC[n+]4ccccc4)cc13)-c1cc3c(c(=O)n1C2)COC(=O)[C@]3(O)CC.[Br-] | 0.52 nM/ml | 1.56 nM/ml | 1.12 | 0.08 nM/ml
CCc1c2c(nc3ccc(OCCCn4cnc5cncnc54)cc13)-c1cc3c(c(=O)n1C2)COC(=O)[C@]3(O)CC | 0.88 nM/ml | 1.23 nM/ml | 0.72 | 0.13 nM/ml
CC[C@@]1(O)C(=O)OCc2c1cc1n(c2=O)Cc2cc3cc(OCC[n+]4cccc(F)c4)ccc3nc2-1.[Br-] | 0.73 nM/ml | – | 0.85 | 0.68 nM/ml
CC[C@@]1(O)C(=O)OCc2c1cc1n(c2=O)Cc2cc3cc(OCC[n+]4cccc(C(C)=O)c4)ccc3nc2-1.[Br-] | 5.88 nM/ml | – | 1.04 | 6.28 nM/ml
CCc1c2c(nc3ccc(OCCCn4ccnc4)cc13)-c1cc3c(c(=O)n1C2)COC(=O)[C@]3(O)CC | 0.06 nM/ml | 0.16 nM/ml | 1.01 | 0.32 nM/ml
CCc1c2c(nc3ccc(OCCC[n+]4cccc(C(C)=O)c4)cc13)-c1cc3c(c(=O)n1C2)COC(=O)[C@]3(O)CC.[Br-] | 2.24 nM/ml | 2.81 nM/ml | 0.86 | 4.82 nM/ml
CCc1c2c(nc3ccc(OCC[n+]4cccc(F)c4)cc13)-c1cc3c(c(=O)n1C2)COC(=O)[C@]3(O)CC.[Br-] | 0.1 nM/ml | 0.25 nM/ml | 1.07 | 0.19 nM/ml
CCc1c2c(nc3ccc(OCC[n+]4cccc(C(C)=O)c4)cc13)-c1cc3c(c(=O)n1C2)COC(=O)[C@]3(O)CC.[Br-] | 0.09 nM/ml | 0.26 nM/ml | 0.97 | 0.09 nM/ml
CCc1c2c(nc3ccc(OCC[n+]4cccc(CO)c4)cc13)-c1cc3c(c(=O)n1C2)COC(=O)[C@]3(O)CC.[Br-] | 0.85 nM/ml | 1.74 nM/ml | 1.02 | 0.61 nM/ml
CC[C@@]1(O)C(=O)OCc2c1cc1n(c2=O)Cc2cc3cc(OCCCn4ccnc4)ccc3nc2-1 | 0.98 nM/ml | 0.38 nM/ml | 0.7 | –
CCc1c2c(nc3ccc(OCCCn4cncn4)cc13)-c1cc3c(c(=O)n1C2)COC(=O)[C@]3(O)CC | 0.04 nM/ml | 0.08 nM/ml | 0.64 | 0.04 nM/ml
CC[C@@]1(O)C(=O)OCc2c1cc1n(c2=O)Cc2cc3cc(OCCC[n+]4cccc(C)c4)ccc3nc2-1.[Br-] | < 0.01 nM/ml | – | 0.72 | < 0.01 nM/ml
CC[C@@]1(O)C(=O)OCc2c1cc1n(c2=O)Cc2cc3cc(OCC[n+]4cccc(CO)c4)ccc3nc2-1.[Br-] | 7.49 nM/ml | – | 0.7 | 6.57 nM/ml
CCc1c2c(nc3ccc(OCCCOc4cc(C(F)(F)F)ncn4)cc13)-c1cc3c(c(=O)n1C2)COC(=O)[C@]3(O)CC | 0.07 nM/ml | 0.08 nM/ml | 0.59 | 0.02 nM/ml
CC[C@@]1(O)C(=O)OCc2c1cc1n(c2=O)Cc2cc3cc(OCC[n+]4cccc(C)c4)ccc3nc2-1.[Br-] | 2.95 nM/ml | – | 1.02 | 1.3 nM/ml
CC[C@@]1(O)C(=O)OCc2c1cc1n(c2=O)Cc2cc3cc(OCC[n+]4ccccc4)ccc3nc2-1.[Br-] | 0.97 nM/ml | – | 1.03 | 0.72 nM/ml
CC[C@@]1(O)C(=O)OCc2c1cc1n(c2=O)Cc2cc3cc(OCCC[n+]4ccccc4)ccc3nc2-1.[Br-] | 0.07 nM/ml | – | 0.7 | 0.06 nM/ml
